Data taken from paper PMC6624297 (Cell Death & Disease, 2019).

How the values were obtained:
VEGF = VEGF secretion ELISA in A549 supernatant; type: cell-based, human; conditions: ELISA of cell supernatant
Protocol: Since the inhibitory effect of the compound on A549 cells was stronger than that of H460, the A549 cells were treated with different concentrations of L14e. Taking the supernatant of the cells to detect the change of VEGF content by ELISA assays, and the effect of the supernatant on the formation of endothelial cells was detected.

H460 cells [1] = test: Transwell migration and wound healing, H460; type: cell-based, human; conditions: H460, 0.5, 1.0, 1.5 μM, 24 h
Protocol: Cell migration ability was measured using transwell chambers (8-μm pore size; Corning Costar, Cambridge, MA, USA). For the transwell assay, A549 and H460 cells suspended in serum-free RPMI-1640 medium containing different concentrations of L14e (0, 0.5, 1.0, and 1.5 μM) were seeded into the upper chamber. The lower chamber contained RPMI-1640 medium supplemented with 20% serum. After 24 h incubation, the filters were fixed in methanol and stained with 0.1% crystal violet. The upper faces of the filters were gently abraded, and the lower faces with cells migrated across the filters were imaged and counted under the microscope. For wound healing assays, cells were placed into 6-well plates and cultured until 100% confluence. An artificial scratch was created using a 200 μL pipette tip. Add serum-free RPMI-1640 medium containing different concentrations of drugs. At 24 h after culturing in serum-free medium, wound closure images were captured in the same field under magnification. Cell healing rates were calculated by the fraction of cell coverage across the line. These experiments were performed in triplicate and repeated three times.

H460 cells [2] = test: Annexin V/PI staining flow cytometry, H460; type: cell-based, human; conditions: 24 h
Protocol: The density of the A549 cells and H460 in the logarithmic growth phase was adjusted to 1 × 10^6 cells/mL, and a total of 1 mL of cell suspension and 1 mL of L14e at different concentrations were added into each well with the final compound L14e concentration in each group as 0, 0.5, 1.0, and 1.5 μM. Details are given in Supplementary Materials and Methods.
The density of the A549 cells and H460 in the logarithmic growth phase was adjusted to 1 × 10^6 cells/mL, and then the cell suspension was seeded into a 6-well plate (Becton Dickinson and Company, USA). A total of 1 mL of cell suspension and 1 mL of compound L14e at different concentrations were added into each well with the final compound L14e concentration in each group as 0 μM, 0.5 μM, 1.0 μM, and 1.5μM. After cells were incubated for 24 h at 37 °C, 1 mL of cell suspension per well was collected and centrifuged at 1000 r/min for 10 min at 4°C, and the supernatant was removed. Then, 1 mL of cold PBS was added to the cell pellet, and was shaken lightly to re-suspend the cells. The cells were centrifuged at 1000 r/min at 4 °C for 10 min, and the supernatant was removed. These steps were repeated twice. The cells were re-suspended in 150µL of PBS, 10 µL of fluorescein isothiocyanate (FITC)-labeled Annexin V (Annexin V-FITC) (Promega Corporation, USA) and 5 µL of PI (Promega Corporation, USA) were added. The mixture was gently mixed and incubated in the dark at room temperature for 10 min then stained cells were analyzed using flow cytometry to test the levels of apoptotic cells (Becton Dickinson and Company, USA; FACS Calibur).

HCoEpiC cell line = test: Selectivity index against HCoEpiC; type: cell-based; conditions: SI = CC50/IC50
HepG2 cells = test: MTT assay HepG2; type: cell-based; conditions: Homo sapiens, 24h of treatment, mean ± SD
Protocol: (§1) Details are given in Supplementary Materials and Methods. Using probability unit and weighted regression method to calculate the IC50 value of compounds.
(§2) Total cells in the logarithmic growth phase were collected, digested using 0.25% pancreatic enzymes, and then diluted into single-cell suspensions using phosphate-buffered solution (PBS). These cells were seeded into 96-well plates at 4× 10^3-5× 10^3 cells per well (100 µL per well) and then A549, H460, OVCAR-3, SGC7901, MDA-MB-231, HCT116 and HepG2 were cultured at 37°Cin an incubator containing 5% CO2. After cell complete attachment, 100 µL of different concentrations of compounds (0.625 μM, 1.25 μM, 2.5μM, 5 μM, 10 μM) were added to the cells after the nutrient solution in each well was discarded, while no compound except 0.1% DMSO was added to cells in the control group; at the same time, each concentration was set up to 5 wells. In addition, 5 wells in each 96-well plate only received 100 µL of nutrient solution as a blank control. The plates were taken out after the cells were incubated with compounds for 24 h, and 20 µL of MTT solution (5 mg/mL) (Wuhan Boster Biotechnology Limited Company, Wuhan, China; item No. AR1156) was added into all the wells. After another time of incubation for 4 h at 37 °C, the nutrient solution in each well was discarded slowly, and 150 µL of DMSO was added to each well. The plates were shaken on a shaking table for 20 min. When the crystals were fully dissolved, the blank wells were used to zero the plate reader. The optical density (OD) of each well was detected at 490 nm. The IC50 value was determined as the concentration of the inhibitor that caused 50% inhibition. Using probability unit and weighted regression method to calculate the IC50 value of compounds.

OVCAR-3 cells = test: MTT assay OVCAR-3; type: cell-based; conditions: Homo sapiens, 24h of treatment, mean ± SD
Protocol: as §1, §2

HPAEpiC cell line = test: Selectivity index against HPAEpiC; type: cell-based; conditions: SI = CC50/IC50

Compound: O=C(Nc1cccc(Cl)c1)Nc1ccccc1NS(=O)(=O)c1c[nH]c(=O)[nH]c1=O [Compound L14e, N'-(3-chlorophenyl)-2-(2,4-dihydroxypyrimidine-5-sulfonamido)phenyl urea]
- secretion of VEGF in A549 cells (VEGF): significantly reduce the secretion of VEGF
- effect on cell migration (H460 cells [1]): significantly inhibited the migration
- apoptotic rate (H460 cells [2]; H460, 0.5 μM): 6.4%
- early apoptosis rate (Q4, Annexin V [+] PI [−]) (H460 cells [2]; H460, 0.5 μM): 3.9%
- apoptotic rate (H460 cells [2]; H460, 1.0 μM): 21.8%
- early apoptosis rate (Q4, Annexin V [+] PI [−]) (H460 cells [2]; H460, 1.0 μM): 15.1%
- apoptotic rate (H460 cells [2]; H460, 1.5 μM): 24.4%
- early apoptosis rate (Q4, Annexin V [+] PI [−]) (H460 cells [2]; H460, 1.5 μM): 17.3%
- SI (Selectivity index) HCoEpiC (HCoEpiC cell line): 9.40
- IC50 (HepG2 cells): 1360 ± 130 nM
- IC50 (OVCAR-3 cells): 1680 ± 310 nM
- SI (Selectivity index) HPAEpiC (HPAEpiC cell line): 19.79
